Data: ChEMBL document CHEMBL1125877, “Synthesis of high specific activity (+)- and (-)-6-[18F]fluoronorepinephrine via the nucleophilic aromatic substitution reaction” (1991)

What was measured:
[1] = organism: Papio hamadryas; experiment: Peak concentration injected dose/cc was observed at 10 min post injection in female baboons; format: functional
[2] = organism: Papio hamadryas; experiment: Percent radioactivity remained at 120 min post injection was reported in female baboons; format: functional, organism-based; conditions: tested as the 18F-labelled form

In the case of `NCC(O)c1cc(O)c(O)cc1[18F]` (racemic), the Peak concentration [1] is reported as 0.042%.

For `NCC(O)c1cc(O)c(O)cc1F` (racemic), the Radioactivity remained [2] was 0.032%.
